Laboratory results: publication PMC10113987, “A tool for nuclear imaging of the SARS-CoV-2 entry receptor: molecular model and preclinical development of ACE2-selective radiopeptides” (EJNMMI Research, 2023)
Read-outs that look alike come from different tables or passages of the source. Positions of bridges follow the written chain, without caps; N, C: chain ends. Residues, ends and D or L forms follow the SMILES beside them. *: point of attachment. DOTA = O=C(O)CN1CCN(CC(=O)O)CCN(CC(=O)*)CCN(CC(=O)O)CC1; NODAGA = O=C(O)CN1CCN(CC(=O)O)CCN(C(CCC(=O)*)C(=O)O)CC1; Ahx = NCCCCCC(=O)O

How the values were obtained:
[1] = test system: HEK-ACE2/HEK-ACE-xenografted mice; experiment: SPECT/CT imaging and quantification of retained activity in HEK-ACE2/HEK-ACE xenografted mice; assay type: in vivo, mouse; settings: for Activity retained in the kidneys relative to the 1 h p.i.-timepoint: SPECT/CT quantification, non-decay-corrected
Method: (§1) All applicable international, national, and/or institutional guidelines for the care and use of animals were followed. In particular, all animal experiments were carried out according to the guidelines of the Swiss Regulations for Animal Welfare. Preclinical studies have been ethically approved by the Cantonal Committee of Animal Experimentation and permitted by the responsible cantonal authorities (License N° 75743). Five-week-old female CD1/nude mice and female immunocompetent FVB mice were obtained from Charles River Laboratories (Sulzfeld, Germany) and fed with standard rodent chow ad libitum. CD1/nude were subcutaneously inoculated with HEK-ACE2 cells (6–8 × 10^6 cells in 100 µL PBS) on the right shoulder and approximately one week later with HEK-ACE (4 × 10^6 cells in 100 µL PBS) on the left shoulder. Imaging and biodistribution studies were performed 2–4 weeks later when the xenografts reached a size of 100–300 mm^3.
SPECT/CT imaging was performed using a four-head, multiplexing, multipinhole small-animal SPECT camera (NanoSPECT/CT™, Mediso Medical Imaging Systems, Budapest, Hungary). Each head was outfitted with a tungsten-based aperture of nine 1.4 mm-diameter pinholes and a thickness of 10 mm. CT scans of 7.5 min duration were followed by SPECT scans of ~ 50 min performed 1 h, 3 h and 24 h after injection of the respective radiopeptide (10 MBq, 0.5 nmol, 100 μL), diluted in NaCl 0.9% containing 0.05% BSA. During the scan, mice were anesthetized with a mixture of isoflurane and oxygen. The images were acquired using Nucline software (version 1.02, Mediso Ltd., Budapest, Hungary). The real-time CT reconstruction used a cone-beam-filtered backprojection. The reconstruction of SPECT data was performed with the HiSPECT software (version 1.4.3049, Scivis GmbH, Göttingen, Germany) using γ-energies of 93.20 keV (± 10%), 184.60 keV (± 10%) and 300.00 keV (± 10%) for gallium-67. All images were prepared using the VivoQuant post-processing software (version 3.0, inviCRO Imaging Services and Software, Boston, US). A Gauss post-reconstruction filter (full width at half maximum, 1 mm) was applied, and the scale of activity for gallium-67 was set as indicated on the SPECT/CT images. In order to estimate the wash-out of the DX600-based radiopeptides from the HEK-ACE2 xenografts and kidneys over time, the absolute amount of activity was determined in these tissues using the VivoQuant quantification tool. The accumulated activity (non-decay-corrected value in MBq) in the xenografts and kidneys, respectively, obtained at the 1 h p.i. timepoint was set as 100%. The percentage of activity retained in these tissues was determined at 3 h and 24 h p.i. based on the absolute activity determined at these timepoints.

[2] = test system: HEK-ACE2/HEK-ACE-xenografted mice; experiment: Biodistribution in HEK-ACE2/HEK-ACE xenografted mice; assay type: in vivo, mouse; settings: for HEK-ACE2 xenograft-to-kidney ratio: 3 h after injection
Method: as §1
(§2) Biodistribution studies in xenograft-bearing mice were performed 2–4 weeks after cell inoculation. Mice were intravenously injected with [^67Ga]Ga-DOTA-DX600, [^67Ga]Ga-NODAGA-DX600, [^67Ga]Ga-HBED-CC-DX600 or [^67Ga]Ga-DOTA-BPP9a (3 MBq, 0.5 nmol, 100 µL) diluted in NaCl 0.9% containing 0.05% BSA. The mice were sacrificed 3 h after administration of the radiopeptides. Selected tissues and organs were collected, weighed and counted using a γ-counter. The results were listed as a percentage of the injected activity per gram of tissue mass (% IA/g), using counts of a defined volume of the original injection solution measured simultaneously, resulting in decay-corrected values. Statistical analysis was performed by applying a one‐way ANOVA test with a Tukey’s multiple comparisons post‐test (GraphPad Prism software, version 8.3.1).

[3] = as above; assay type: in vivo, mouse; settings: female, CD1/nude, mouse, iv, 0.5 nmol, total radioactivity, 3 h after i.v. injection, decay-corrected, n = 3
Method: as §1, §2

[4] = In vitro stability in mouse blood plasma (TLC); assay type: in vitro ADME; settings: 37 °C
Method: The ^67Ga-labeled DX600-radiopeptides (20 MBq/nmol) were incubated in human and mouse plasma (10 MBq/200 µL), respectively, at 37 °C. Aliquots were taken at variable time points up to 24 h for analysis using reversed phase thin layer chromatography (TLC) with citrate buffer (0.1 M, pH 5.5) as a mobile phase. Images of the TLC plates were obtained using a storage phosphor system (Cyclone Plus, PerkinElmer) and quantified using the OptiQuant software (version 5.0, Bright Instrument Co Ltd., PerkinElmer™) (Supplementary Information).
The radiopeptides were prepared and TLC experiments were performed immediately after radiolabeling by applying the diluted radiopeptides in saline (1 µL; ~0.05 MBq) and [^67Ga]GaCl3 solution (1 µL; ~0.05 MBq) on the TLC plates. The radiopeptides were incubated in mouse or human plasma (10 MBq/200 µL) at 37° C. TLC was performed with an aliquot of the plasma samples at the given timepoints (30 min, 1 h, 3 h and 24 h). The TLC plates were exposed to a phosphor screen followed by development using a storage phosphor system (Cyclone Plus, PerkinElmer). The quantification of the signals was carried out using the OptiQuant software (version 5.0, Bright Instrument Co Ltd., PerkinElmer^TM). The obtained chromatograms were analyzed by determination of the peak area of the radiolabeled peptide, the released gallium-67 as well as degradation products of unknown structure. The quantity of the intact product was expressed as percentage of the sum of integrated peak areas of the entire chromatogram.

[5] = 3 h after i.v. injection, decay-corrected, n = 3
[6] = HEK-ACE xenograft, read-out: Biodistribution: ACE xenograft (HEK-ACE)
[7] = blood, read-out: Biodistribution: blood
[8] = bone, read-out: Biodistribution: bone
[9] = heart, read-out: Biodistribution: heart
[10] = intestines, read-out: Biodistribution: intestines
[11] = kidneys, read-out: Biodistribution: kidneys (renal retention)
[12] = liver, read-out: Biodistribution: liver
[13] = lung, read-out: Biodistribution: lung
[14] = muscle, read-out: Biodistribution: muscle
[15] = salivary glands, read-out: Biodistribution: salivary glands
[16] = spleen, read-out: Biodistribution: spleen
[17] = stomach, read-out: Biodistribution: stomach
[18] = HEK-ACE2 xenograft, read-out: Biodistribution: ACE2 xenograft (HEK-ACE2)

CC[C@H](C)[C@H](NC(=O)[C@H](CCC(N)=O)NC(=O)[C@@H]1CCCN1C(=O)[C@H](CCCNC(=N)N)NC(=O)[C@@H]1CCCN1C(=O)[C@H](Cc1c[nH]c2ccccc12)NC(=O)[C@H](CCC(=O)O)NC(=O)CCCCCNC(=O)CCCCCNC(=O)CN1CCN(CC(=O)O)CCN(CC(=O)O)CCN(CC(=O)O)CC1)C(=O)N1CCC[C@H]1C(=O)N1CCC[C@H]1C(=O)O [[^67Ga]Ga-DOTA-BPP9a, metal not drawn] ({DOTA-Ahx-Ahx}-EWPRPQIPP-OH)
Uptake in HEK-ACE2 xenografts on SPECT/CT images ([1]; 1 h and 3 h after injection): no uptake | Uptake in HEK-ACE xenografts on SPECT/CT images ([1]; 1 h and 3 h after injection): accumulation | Biodistribution: ACE2 xenograft (HEK-ACE2) [2, 5]: < 0.5 % IA/g | Biodistribution: ACE2 xenograft (HEK-ACE2) ([2]; 3 h after i.v. injection, decay-corrected, n = 3, listed as [^67Ga]Ga-DOTA- BPP9a): 0.19 ± 0.19 % IA/g | tissue uptake at 3 h [3, 6]: 3.17 ± 0.29 %ID/g | tissue uptake at 3 h [3, 7]: 0.05 ± 0.01 %ID/g | tissue uptake at 3 h [3, 8]: 0.04 ± 0.01 %ID/g | tissue uptake at 3 h [3, 9]: 0.03 %ID/g | tissue uptake at 3 h [3, 10]: 0.06 ± 0.02 %ID/g | tissue uptake at 3 h [3, 11]: 3.22 ± 0.8 %ID/g | tissue uptake at 3 h [3, 12]: 0.09 ± 0.01 %ID/g | tissue uptake at 3 h [3, 13]: 0.13 ± 0.03 %ID/g | tissue uptake at 3 h [3, 14]: 0.02 ± 0.01 %ID/g | tissue uptake at 3 h [3, 15]: 0.04 ± 0.01 %ID/g | tissue uptake at 3 h [3, 16]: 0.08 ± 0.04 %ID/g | tissue uptake at 3 h [3, 17]: 0.06 ± 0.05 %ID/g

CC(=O)N[C@@H](CCCCNC(=O)CN1CCN(CC(=O)O)CCN(CC(=O)O)CCN(CC(=O)O)CC1)C(=O)NCC(=O)N[C@@H](CC(=O)O)C(=O)N[C@@H](Cc1ccc(O)cc1)C(=O)N[C@@H](CO)C(=O)N[C@@H](Cc1c[nH]cn1)C(=O)N[C@H]1CSSC[C@@H](C(=O)N[C@H](C(=O)N[C@@H](Cc2ccc(O)cc2)C(=O)N2CCC[C@H]2C(=O)N[C@@H](CC(=O)O)C(=O)N2CCC[C@H]2C(=O)N[C@@H](CCC(=O)O)C(=O)NCC(=O)NCC(=O)NCC(N)=O)[C@@H](C)O)NC(=O)[C@H](CCCCN)NC(=O)[C@H](Cc2c[nH]c3ccccc23)NC(=O)[C@H](Cc2c[nH]c3ccccc23)NC(=O)[C@@H]2CCCN2C(=O)[C@H](Cc2ccc(O)cc2)NC(=O)[C@H](Cc2ccc(O)cc2)NC(=O)[C@H](CCCNC(=N)N)NC(=O)[C@H](CC(C)C)NC(=O)[C@@H]2CCCN2C(=O)[C@H](CO)NC1=O [[^67Ga]Ga-DOTA-DX600, metal not drawn] (Ac-K(DOTA)GDYSHCSPLRYYPWWKCTYPDPEGGG-NH2; disulfide 7-18)
Activity retained in the kidneys relative to the 1 h p.i.-timepoint ([1]; 3 h p.i.): ~ 85% | Activity retained in the kidneys relative to the 1 h p.i.-timepoint ([1]; 24 h p.i.): 35–45% | Intact radiopeptide in mouse blood plasma ([4]; 3 h): 95 ± 3% | Release of gallium-67 in mouse blood plasma ([4]; 3 h): ~ 4% | Intact radiopeptide in mouse blood plasma ([4]; 24 h): 20 ± 13% | Release of gallium-67 in mouse blood plasma ([4]; 24 h): > 50% | Intact radiopeptide in mouse blood plasma ([4]; first hour): intact | Biodistribution: ACE xenograft (HEK-ACE) [2, 5]: 0.32 ± 0.18 % IA/g | HEK-ACE2 xenograft-to-kidney ratio [2]: 0.45 ± 0.02 | tissue uptake at 3 h [3, 18]: 10.7 ± 0.4 %ID/g | tissue uptake at 3 h [3, 6]: < 0.5 %ID/g | tissue uptake at 3 h [3, 7]: 0.06 ± 0.01 %ID/g | tissue uptake at 3 h [3, 8]: 0.06 ± 0.01 %ID/g | tissue uptake at 3 h [3, 9]: 0.04 ± 0.01 %ID/g | tissue uptake at 3 h [3, 10]: 0.09 ± 0.04 %ID/g | tissue uptake at 3 h [3, 11]: ~24 %ID/g | tissue uptake at 3 h [3, 12]: 0.22 ± 0.01 %ID/g | tissue uptake at 3 h [3, 13]: 0.14 ± 0.06 %ID/g | tissue uptake at 3 h [3, 14]: 0.02 %ID/g | tissue uptake at 3 h [3, 15]: 0.05 ± 0.01 %ID/g | tissue uptake at 3 h [3, 16]: 0.09 ± 0.01 %ID/g | tissue uptake at 3 h [3, 17]: 0.04 ± 0.01 %ID/g

CC(=O)N[C@@H](CCCCNC(=O)CCC(C(=O)O)N1CCN(CC(=O)O)CCN(CC(=O)O)CC1)C(=O)NCC(=O)N[C@@H](CC(=O)O)C(=O)N[C@@H](Cc1ccc(O)cc1)C(=O)N[C@@H](CO)C(=O)N[C@@H](Cc1c[nH]cn1)C(=O)N[C@H]1CSSC[C@@H](C(=O)N[C@H](C(=O)N[C@@H](Cc2ccc(O)cc2)C(=O)N2CCC[C@H]2C(=O)N[C@@H](CC(=O)O)C(=O)N2CCC[C@H]2C(=O)N[C@@H](CCC(=O)O)C(=O)NCC(=O)NCC(=O)NCC(N)=O)[C@@H](C)O)NC(=O)[C@H](CCCCN)NC(=O)[C@H](Cc2c[nH]c3ccccc23)NC(=O)[C@H](Cc2c[nH]c3ccccc23)NC(=O)[C@@H]2CCCN2C(=O)[C@H](Cc2ccc(O)cc2)NC(=O)[C@H](Cc2ccc(O)cc2)NC(=O)[C@H](CCCNC(=N)N)NC(=O)[C@H](CC(C)C)NC(=O)[C@@H]2CCCN2C(=O)[C@H](CO)NC1=O (stereo partly shown) [[^67Ga]Ga-NODAGA-DX600, metal not drawn] (Ac-K(NODAGA)GDYSHCSPLRYYPWWKCTYPDPEGGG-NH2; disulfide 7-18)
Activity retained in the kidneys relative to the 1 h p.i.-timepoint ([1]; 3 h p.i.): ~ 85% | Activity retained in the kidneys relative to the 1 h p.i.-timepoint ([1]; 24 h p.i.): 35–45% | Intact radiopeptide in mouse blood plasma ([4]; 3 h): 97 ± 1% | Intact radiopeptide in mouse blood plasma ([4]; 24 h): 36 ± 7% | HEK-ACE2 xenograft-to-kidney ratio [2]: 0.67 ± 0.16 | tissue uptake at 3 h [3, 18]: 15.5 ± 2.2 %ID/g | tissue uptake at 3 h [3, 7]: 0.02 ± 0.01 %ID/g | tissue uptake at 3 h [3, 8]: 0.04 ± 0.01 %ID/g | tissue uptake at 3 h [3, 9]: 0.04 ± 0.01 %ID/g | tissue uptake at 3 h [3, 10]: 0.13 ± 0.07 %ID/g | tissue uptake at 3 h [3, 11]: ~24 %ID/g | tissue uptake at 3 h [3, 12]: 0.25 ± 0.04 %ID/g | tissue uptake at 3 h [3, 13]: 0.08 ± 0.01 %ID/g | tissue uptake at 3 h [3, 14]: 0.02 ± 0.01 %ID/g | tissue uptake at 3 h [3, 15]: 0.05 ± 0.01 %ID/g | tissue uptake at 3 h [3, 16]: 0.08 ± 0.01 %ID/g | tissue uptake at 3 h [3, 17]: 0.06 ± 0.03 %ID/g
